From US9822164B2, “Labelling agent, and composition for labelling a protein, method for labelling a protein, and method for detecting a protein” (KOREA INSTITUTE OF SCIENCE AND TECHNOLOGY, priority 2014, dated 2017)

Tests used:
[1] = Maximum values of absorbance and fluorescence of the compounds in DMSO; type: physicochemical
Method: Experimental device, analyzer and reagents used in Examples and comparative experiments are the same as follows. FT-NMR spectroscopy is performed using Bruker Avance 400, and LC/MS analysis is performed using Thermo Dionex ultimate 3000/Velos pro on ion-trap mass spectrometer (ITMS). All reagents purchased from Aldrich are used without additional purification. Whatman filter papers having a diameter of 125 mm are used. Of derivatives used in experiments, 2-(2-Aminophenyl)-1H-benzimidazole) (ABI) is purchased from Aldrich, and NMR analysis and fluorescence/absorbance values are recorded by the method known in the art. […]

[2] = target: T1, BSA (Bos taurus, UniProt P02769); test: Labelling (photocrosslinking) of protein by UV irradiation, gel electrophoresis, fluorescence intensity; type: binding; settings: 5 minutes after UV irradiation, about 254 nm; FIG. 1a
T1 construct: purchased Sigma Aldrich
T1 sequence (P02769 25-607): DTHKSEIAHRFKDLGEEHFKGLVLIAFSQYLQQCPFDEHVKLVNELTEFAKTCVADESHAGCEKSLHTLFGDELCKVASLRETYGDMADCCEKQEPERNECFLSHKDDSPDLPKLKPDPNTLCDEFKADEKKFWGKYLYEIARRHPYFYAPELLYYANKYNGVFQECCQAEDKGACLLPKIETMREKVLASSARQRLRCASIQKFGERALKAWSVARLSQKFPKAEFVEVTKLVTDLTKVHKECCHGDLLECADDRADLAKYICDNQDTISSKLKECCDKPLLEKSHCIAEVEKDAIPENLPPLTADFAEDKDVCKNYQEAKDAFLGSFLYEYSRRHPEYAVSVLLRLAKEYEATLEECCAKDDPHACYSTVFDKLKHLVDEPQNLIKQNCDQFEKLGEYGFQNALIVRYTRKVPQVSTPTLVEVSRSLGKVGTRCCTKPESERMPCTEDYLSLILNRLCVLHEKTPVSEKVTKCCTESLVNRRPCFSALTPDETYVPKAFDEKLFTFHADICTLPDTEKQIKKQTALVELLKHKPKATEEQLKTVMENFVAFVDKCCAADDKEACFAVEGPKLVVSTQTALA
Method: (§1) Proteins of BSA, HSA, peroxidase, and lysozyme are treated with the compounds synthesized or purchased in Example 1, and irradiated with UV at about 254 nm. Then, binding of the compound and the protein over UV irradiation time is examined by gel electrophoresis. A gel electrophoresis apparatus (Bio-Rad) and a small vertical gel electrophoresis apparatus are connected and used for gel electrophoresis. For experiment, a 12% SDS gel and a running buffer are directly prepared as follows and used. 12% SDS gel is prepared by mixing 7.9 ml of H2O, 6.5 ml of pH […] Tris-HCl buffer, 10 ml of 30% Acryl amide, 250 μl of 10% SDS gel, 250 μl of APS, and 10 μl of TMEDE. 1× running buffer is prepared by mixing 200 ml of 10×TGS buffer and 1800 ml of H2O.
(§2) Proteins of BSA, HAS, peroxidase, and lysozyme are purchased from Sigma Aldrich. Fluorescence intensity of the labeled protein is measured using BIO-RAD ChemiDoc, and Blue Epi and Green Epi are used as a light source, and 530 nm emission (28 nm bandwidth) and 650 nm emission (50 nm bandwidth) filters are used according to fluorescence wavelength.
(§3) Y axis of FIGS. 1a through 1d represents fluorescence intensity, indicating photocrosslinking degree of the compound and protein.

[3] = target: T2, HSA (Homo sapiens, UniProt P02768); test: as above; type: binding; settings: 5 minutes after UV irradiation, about 254 nm; FIG. 1b
T2 construct: purchased Sigma Aldrich
T2 sequence (P02768 25-609): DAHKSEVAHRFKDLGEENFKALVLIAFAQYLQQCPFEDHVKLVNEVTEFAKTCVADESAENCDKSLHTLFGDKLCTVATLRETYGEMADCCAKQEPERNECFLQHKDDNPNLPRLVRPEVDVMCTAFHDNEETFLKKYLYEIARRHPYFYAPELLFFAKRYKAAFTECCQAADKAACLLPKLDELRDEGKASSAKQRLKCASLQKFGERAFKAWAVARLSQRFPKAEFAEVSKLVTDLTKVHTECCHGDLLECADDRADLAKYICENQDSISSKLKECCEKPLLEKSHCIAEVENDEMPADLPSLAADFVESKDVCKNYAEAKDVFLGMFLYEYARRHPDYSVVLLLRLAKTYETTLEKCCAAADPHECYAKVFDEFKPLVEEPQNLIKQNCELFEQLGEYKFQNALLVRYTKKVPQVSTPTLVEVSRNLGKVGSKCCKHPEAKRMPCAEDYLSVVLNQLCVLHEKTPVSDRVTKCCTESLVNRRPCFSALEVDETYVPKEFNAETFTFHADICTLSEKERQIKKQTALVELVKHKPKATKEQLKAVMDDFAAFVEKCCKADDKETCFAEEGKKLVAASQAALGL
Method: as §1, §2, §3

[4] = target: T3, lysozyme (Gallus gallus, UniProt P00698); test: as above; type: binding; settings: 5 minutes after UV irradiation, about 254 nm; FIG. 1d
T3 construct: purchased Sigma Aldrich
T3 sequence (P00698 19-147): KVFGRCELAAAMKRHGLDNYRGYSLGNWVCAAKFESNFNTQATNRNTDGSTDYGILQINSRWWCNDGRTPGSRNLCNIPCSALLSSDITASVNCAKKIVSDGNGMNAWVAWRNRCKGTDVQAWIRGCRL
Method: as §1, §2, §3

[5] = tested on: peroxidase; test: as above; type: binding; settings: 5 minutes after UV irradiation, about 254 nm; FIG. 1c
Method: as §1, §2, §3

[6] = tested on: BSA, HSA, peroxidase, and lysozyme; test: Protein labelling, results of FIGS. 1a to 1d taken together; type: binding
Method: as §1, §2
Y axis of FIGS. 1a through 1d represents fluorescence intensity, indicating photocrosslinking degree of the compound and protein. […]

| Compound | Absorbance (maximum value) [1] [nm] | Fluorescence (maximum value) [1] [nm] | Labeling of BSA (fluorescence intensity, photocrosslinking degree) [2] | Labeling of HSA (fluorescence intensity, photocrosslinking degree) [3] | Labeling of lysozyme (fluorescence intensity, photocrosslinking degree) [4] | Labeling of peroxidase (fluorescence intensity, photocrosslinking degree) [5] | Photocrosslinking property, comparison among the compounds [6] |
| --- | --- | --- | --- | --- | --- | --- | --- |
| CCN(CC)c1ccc2nc(-c3ccccc3O)[nH]c2c1 [HDBI, 2-(2-hydroxyphenyl)-5-(diethylamino)benzimidazole] | 360 | 448 | significant labeling | significant labeling | significant labeling | significant labeling |  |
| Nc1ccccc1-c1nc2ccccc2[nH]1 [ABI, 2-(2-Aminophenyl)-1H-benzimidazole] | 360 | 415 |  | significant labeling |  | significant labeling |  |

More lines, now with the values ahead:

| Absorbance (maximum value) [1] [nm] | Fluorescence (maximum value) [1] [nm] | Labeling of BSA (fluorescence intensity, photocrosslinking degree) [2] | Labeling of HSA (fluorescence intensity, photocrosslinking degree) [3] | Labeling of lysozyme (fluorescence intensity, photocrosslinking degree) [4] | Labeling of peroxidase (fluorescence intensity, photocrosslinking degree) [5] | Photocrosslinking property, comparison among the compounds [6] | Compound |
| --- | --- | --- | --- | --- | --- | --- | --- |
| 350 | 515 |  |  |  |  |  | Oc1ccccc1-c1nc2ccccc2s1 [HBT, 2-(2-hydroxyphenyl)benzothiazole] |
| 320 | 463 | significant labeling | significant labeling | significant labeling | significant labeling | highest photocrosslinking property | Oc1ccccc1-c1nc2ccccc2[nH]1 [HBI, 2-(2-hydroxyphenyl)benzimidazole] |
| 380 | 480 | significant labeling |  |  |  |  | Oc1ccccc1-c1nc2ccccc2o1 [HBO, 2-(2-hydroxyphenyl)benzoxazole] |
